Assay results from the SangsterLogP compilation.

Assay: method code SF-AS, from DOI: 10.1016/0045-6535(94)00381-4

| logP | Compound |
| --- | --- |
| 2.73 | COC(=O)C1(S(=O)(=O)c2ccc(Br)cc2)CCCC1 |
| 2.03 | COC(=O)C1(S(=O)(=O)c2ccc(Cl)cc2)CC1 |
| 2.84 | CC(C)OC(=O)C1(S(=O)(=O)c2ccc([N+](=O)[O-])cc2)CCCCC1 |
| 0.93 | COC(=O)CS(=O)(=O)c1ccccc1 |
| 2.36 | CC(C)OC(=O)C1(S(=O)(=O)c2ccc([N+](=O)[O-])cc2)CCC1 |
| 3.16 | CC(C)OC(=O)C1(S(=O)(=O)c2ccc(Cl)cc2)CCCC1 |
| 2.45 | COC(=O)C1(S(=O)(=O)c2ccc(Br)cc2)CCC1 |
| 2.94 | COC(=O)C1(S(=O)(=O)c2ccc(Br)cc2)CCCCC1 |
| 1.98 | COC(=O)C1(S(=O)(=O)c2ccccc2)CCCC1 |
| 2.52 | Cc1ccc(S(=O)(=O)C2(C(=O)OC(C)C)CC2)cc1 |
| 3.21 | Cc1ccc(S(=O)(=O)C2(C(=O)OC(C)C)CCCCC2)cc1 |
| 1.45 | COC(=O)CS(=O)(=O)c1ccc([N+](=O)[O-])cc1Cl |
| 3.49 | CC(C)OC(=O)C1(S(=O)(=O)c2ccc(Cl)cc2)CCCCC1 |
| 2.28 | COC(=O)C1(S(=O)(=O)c2ccc(Cl)cc2)CCC1 |
| 1.77 | COC(=O)C1(S(=O)(=O)c2ccc(C)cc2)CC1 |
| 2.32 | COC(=O)C1(S(=O)(=O)c2ccc(Br)cc2)CC1 |

| logP | Compound |
| --- | --- |
| 2.3 | COC(=O)C1(S(=O)(=O)c2ccccc2)CCCCC1 |
| 2.31 | CCOC(=O)C1(S(=O)(=O)c2ccc(C)cc2)CCC1 |
| 2.64 | CC(C)OC(=O)C1(S(=O)(=O)c2ccc(Cl)cc2)CC1 |
| 1.52 | COC(=O)CS(=O)(=O)c1ccc(Br)cc1 |
| 2.05 | CC(C)OC(=O)C1(S(=O)(=O)c2ccc([N+](=O)[O-])cc2)CC1 |
| 1.31 | COC(=O)CS(=O)(=O)c1ccc(Cl)cc1 |
| 2.54 | COC(=O)C1(S(=O)(=O)c2ccc(C)cc2)CCCCC1 |
| 2.23 | CCOC(=O)C1(S(=O)(=O)c2ccc(C)cc2)CC1 |
| 3.41 | CC(C)OC(=O)C1(S(=O)(=O)c2ccc([N+](=O)[O-])cc2)CCCCCC1 |
| 2.68 | CC(C)(C)OC(=O)C1(S(=O)(=O)c2ccc(Cl)cc2)CC1 |
| 1.33 | COC(=O)C1(S(=O)(=O)c2ccc([N+](=O)[O-])cc2)CC1 |
| 2.04 | CC(C)OC(=O)CS(=O)(=O)c1ccc(Cl)cc1 |
| 3.83 | CC(C)OC(=O)C1(S(=O)(=O)c2ccc(Cl)cc2)CCCCCC1 |
| 1.43 | COC(=O)C1(S(=O)(=O)c2ccccc2)CC1 |
| 2.88 | Cc1ccc(S(=O)(=O)C2(C(=O)OC(C)C)CCCC2)cc1 |
| 1.63 | COC(=O)C1(S(=O)(=O)c2ccccc2)CCC1 |
